Laboratory results from patent publication US9073920B2, “Substituted dibenzonaphthyridines, pharmaceutical uses thereof and processes therfor” (Purdue Research Foundation, priority 2010, dated 2015).
Values joined by “and” are separate entries in the source; they are usually repeats but may differ in a detail not shown here. Equal entries are not always repeated.

Experiments:
[1] = biological target: T1, Human recombinant Top1 (Homo sapiens, UniProt P11387); assay: Topoisomerase I-mediated DNA cleavage reactions; format: biochemical; set-up: key to activity of the compounds to produce Top1-mediated DNA cleavage: +: weak activity; ++ and +++: moderate activity; ++ and +++: moderate activity; ++++: similar activity as 1 μM camptothecin; settings: for Top1 inhibitory activity in Top1-mediated DNA cleavage assay: semi-quantitative scale from 0 to ++++, relative to CPT at 1 μM; for activity of the compounds to produce Top1-mediated DNA cleavage: semiquantitative, tested at 0.1 μM, 1 μM, 10 μM, 100 μM, relative to 1 μM camptothecin
T1 construct: made in house
T1 sequence (P11387 1-765): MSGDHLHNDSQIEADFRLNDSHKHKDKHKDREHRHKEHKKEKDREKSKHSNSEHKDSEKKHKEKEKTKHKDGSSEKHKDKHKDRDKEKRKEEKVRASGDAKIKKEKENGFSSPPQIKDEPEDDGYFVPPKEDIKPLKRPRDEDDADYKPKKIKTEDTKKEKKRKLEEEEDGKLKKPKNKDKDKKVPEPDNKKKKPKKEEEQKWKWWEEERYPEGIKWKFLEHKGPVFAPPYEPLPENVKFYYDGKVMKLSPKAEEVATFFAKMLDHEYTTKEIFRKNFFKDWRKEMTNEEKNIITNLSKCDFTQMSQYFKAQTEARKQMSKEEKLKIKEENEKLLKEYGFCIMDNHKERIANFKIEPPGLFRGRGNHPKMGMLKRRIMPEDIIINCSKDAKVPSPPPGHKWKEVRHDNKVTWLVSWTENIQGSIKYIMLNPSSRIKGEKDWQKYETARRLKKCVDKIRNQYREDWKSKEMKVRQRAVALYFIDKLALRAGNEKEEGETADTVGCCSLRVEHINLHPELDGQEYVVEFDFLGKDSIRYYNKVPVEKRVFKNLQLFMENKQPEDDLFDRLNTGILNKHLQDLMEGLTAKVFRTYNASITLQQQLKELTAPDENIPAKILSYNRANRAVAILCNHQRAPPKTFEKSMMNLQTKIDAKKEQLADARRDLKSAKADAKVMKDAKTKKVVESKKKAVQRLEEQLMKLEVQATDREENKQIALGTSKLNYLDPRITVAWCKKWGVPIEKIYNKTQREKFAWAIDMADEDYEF
Description: Topoisomerase I-Mediated DNA Cleavage Reactions. Human recombinant Top1 was purified from Baculovirus as described previously.^34 The 161 bp fragment from pBluescript SK(−) phagemid DNA (Stratagene, La Jolla, Calif.) was cleaved with the restriction endonucleases PvuII and HindIII (New England Biolabs, Beverly, Mass.) supplied in NE buffer 2 (50 μL reactions) for 1 h at 37° C., and separated by electrophoresis in a 1% agarose gel made in 1×TBE buffer. The 161 bp fragment was eluted from the gel slice using the QIAEX II kit (QIAGEN Inc., Valencia, Calif.). Approximately 200 ng of the fragment was 3′-end labeled at the HindIII site by fill-in reaction with [alpha-^32P]-dGTP and 0.5 mM dATP, dCTP, and dTTP, in React 2 buffer (50 mM Tris-HCl, pH 8.0, […], 50 mM NaCl) with 0.5 unit of DNA polymerase I (Klenow fragment). Unincorporated ^32P-dGTP was removed using mini Quick Spin DNA columns (Roche, Indianapolis, Ind.), and the eluate containing the 3′-end-labeled 161 bp fragment was collected. Aliquots (approximately 50,000 dpm/reaction) were incubated with topoisomerase I at 22° C. for 30 min in the presence of the tested drug. Reactions were terminated by adding SDS (0.5% final concentration). The samples (10 μL) were mixed with 30 μL of loading buffer (80% formamide, 10 mM sodium hydroxide, 1 mM sodium EDTA, 0.1% xylene cyanol, and 0.1% bromophenol blue, pH 8.0). Aliquots were separated in denaturing gels (16% polyacrylamine, 7 M urea). Gels were dried and visualized by using a Phosphoimager and ImageQuant software (Molecular Dynamics, Sunnyvale, Calif.). Each gel included a sample of DNA alone, DNA with only the drug, and DNA with Top I without the drug. The compounds described herein were tested at concentrations of 0.1 μM, 1 μM, 10 μM, 100 μM. The activity of the compounds to produce Top1-mediated DNA cleavage is expressed semiquantitatively as follows: +: weak activity; ++ and +++: moderate activity; ++++: similar activity as 1 μM camptothecin. Results: 33, 0; 34, 0; 32, ++; 31, +++; 30, +; 29, +; 28, 0; and 19, 0.
Biological Results.All of the target compounds were tested for induction of DNA damage in Top1-mediated DNA cleavage assays. The results of this assay are designated relative to the Top1 inhibitory activity of CPT and expressed in semi-quantitative fashion on the scale from 0, no detectable activity, to ++++, similar activity to that of compound 1 at a concentration of 1 μM. […] Compounds 29 and 30, containing an N-(3-morpholinylpropyl) or an N-(3-imidazolylpropyl), respectively were Top1 inhibitors, but only at the lower + level. Without being bound by theory, it is believed that the loss of Top1 inhibitory activity with expansion of the five-membered indenone ring of the indenoisoquinoline to the six-membered ring of compounds described herein might result from the decreased overall solubility, especially for 14, 19, and 28, rather than differences in intercalation between DNA base pairs at the Top1 cleavage site. With 29 and 30, incorporation of amines increased water solubility and affinity toward DNA, possibly due to attraction of their positively charged protonated amines with the phosphates of the DNA backbone.

[2] = Solubility in organic solvents; format: physicochemical; settings: relative to their precursors 14 and 29
[3] = tested on: K-562; assay: NCI screen antiproliferative activity, leukemia K-562; format: cell-based; settings: Homo sapiens, K562, concentration for 50% growth inhibition
Description: (§1) The antipoliferative activity of each compound was tested against 55 different human cancer cell lines in the National Cancer Institute screen.^32, 33 The chlorodibenzonaphthyridinone 32 bearing a morpholinopropyl chain on the lactam nitrogen was cytotoxic to human cancer cells at low micromolar concentrations. The cytotoxicities of 32 in selected cell lines are presented in Table 1, along with the mean graph midpoint value of 5.6 μM. In general, cytotoxicity GI50 values appeared to be in the low micromolar range, although 32 was particularly cytotoxic in the leukemia K-562 and RPMI-8226 cell lines, the ovarian IGROV1 cancer cell line, the renal UO-31 cancer cell line, and the breast MCF7 cancer cell line.

[4] = tested on: RPMI-8226; assay: NCI screen antiproliferative activity, leukemia RPMI-8226; format: cell-based; settings: Homo sapiens, concentration for 50% growth inhibition
Description: as §1

[5] = tested on: HOP-62; assay: NCI screen antiproliferative activity, lung HOP-62; format: cell-based; settings: Homo sapiens, concentration for 50% growth inhibition
Description: as §1

[6] = tested on: HCT-116; assay: NCI screen antiproliferative activity, colon HCT-116; format: cell-based; settings: Homo sapiens, concentration for 50% growth inhibition
Description: as §1

[7] = tested on: COLO 205; assay: NCI screen antiproliferative activity, colon COLO 205; format: cell-based; settings: Homo sapiens, concentration for 50% growth inhibition
Description: as §1

[8] = tested on: SF-539; assay: NCI screen antiproliferative activity, CNS SF-539; format: cell-based; settings: Homo sapiens, concentration for 50% growth inhibition
Description: as §1

[9] = tested on: UACC-62; assay: NCI screen antiproliferative activity, melanoma UACC-62; format: cell-based; settings: Homo sapiens, concentration for 50% growth inhibition
Description: as §1

[10] = tested on: OVCAR-3; assay: NCI screen antiproliferative activity, ovarian OVCAR-3; format: cell-based; settings: Homo sapiens, concentration for 50% growth inhibition
Description: as §1

[11] = tested on: IGROV1; assay: NCI screen antiproliferative activity, ovarian IGROV1; format: cell-based; settings: Homo sapiens, IGROV-1, concentration for 50% growth inhibition
Description: as §1

[12] = tested on: SN12C; assay: NCI screen antiproliferative activity, renal SN12C; format: cell-based; settings: Homo sapiens, concentration for 50% growth inhibition
Description: as §1

[13] = tested on: UO-31; assay: NCI screen antiproliferative activity, renal UO-31; format: cell-based; settings: Homo sapiens, concentration for 50% growth inhibition
Description: as §1

[14] = tested on: DU-145; assay: NCI screen antiproliferative activity, prostate DU-145; format: cell-based; settings: Homo sapiens, concentration for 50% growth inhibition
Description: as §1

[15] = tested on: MCF7; assay: NCI screen antiproliferative activity, breast MCF7; format: cell-based; settings: Homo sapiens, concentration for 50% growth inhibition
Description: as §1

[16] = tested on: all human cancer cell lines successfully tested; assay: NCI screen mean graph midpoint for growth inhibition; format: cell-based; settings: mean over all human cancer cell lines successfully tested
Description: as §1

[17] = Top1-mediated DNA fragmentation pattern, compared with indenoisoquinolines

In the case of `COc1cc2c(=O)n(C)c3c4ccccc4[nH]c(=O)c3c2cc1OC` [Compound 14, 8,9-Dimethoxy-5-methyldibenzo[c,h][1,6]naphthyridine-6,11(5H,12H)-dione], the “Top1 inhibitory activity in Top1-mediated DNA cleavage assay” value (from here on “Top1 inhibitory activity”) [1] was “no detectable inhibition and 0”.

In the case of `C=CCn1c(=O)c2cc(OC)c(OC)cc2c2c(=O)[nH]c3ccccc3c21` [Compound 19, 5-Allyl-8,9-dimethoxydibenzo[c,h][1,6]naphthyridine-6,11(5H,12H)-dione], the “Top1 inhibitory activity” value [1] was “no detectable inhibition” and the “activity of the compounds to produce Top1-mediated DNA cleavage” value (shortened to “activity of the compounds”) [1] was 0.

In the case of `COc1cc2c(=O)n(CCCO)c3c4ccccc4[nH]c(=O)c3c2cc1OC` [Compound 28, 5-(3-Hydroxypropyl)-8,9-dimethoxydibenzo[c,h][1,6]naphthyridine-6,11(5H,12H)-dione], the “Top1 inhibitory activity” value [1] was “no detectable inhibition” and the “activity of the compounds” value [1] was 0.

In the case of `COc1cc2c(=O)n(CCCN3CCOCC3)c3c4ccccc4[nH]c(=O)c3c2cc1OC` [Compound 29, 8,9-Dimethoxy-5-(3-morpholinopropyl)dibenzo[c,h][1,6]naphthyridine-6,11(5H,12H)-dione], the “activity of the compounds” value [1] was “+”.

With `COc1cc2c(=O)n(CCCn3ccnc3)c3c4ccccc4[nH]c(=O)c3c2cc1OC` [Compound 30, 5-(3-(1H-Imidazol-1-yl)propyl)-8,9-dimethoxydibenzo[c,h][1,6]-naphthyridine-6,11(5H,12H)dione] the “activity of the compounds” value [1] was “+”.

For `COc1cc2c(=O)n(C)c3c4ccccc4nc(Cl)c3c2cc1OC` [Compound 31, 11-Chloro-8,9-dimethoxy-5-methyldibenzo[c,h][1,6]naphthyridin-6(5H)-one], the “cleavage band intensity at base pair 97” value [1, 17] was “more intense”, the “cleavage band intensity at base pairs 44 and 68” value [1, 17] was “weak” and the “activity of the compounds” value [1] was “+++”. For the same molecule, the “solubilities in solvents like DMSO, methanol and chloroform” value [2] was “increased substantially”.

In the case of `COc1cc2c(=O)n(CCCN3CCOCC3)c3c4ccccc4nc(Cl)c3c2cc1OC` [Compound 32, 11-Chloro-8,9-dimethoxy-5-(3-morpholinopropyl)dibenzo[c,h][1,6]-naphthyridin-6(5H)-one], the “DNA cleavage sites with significant band intensity” value ([1]; Top1-mediated DNA fragmentation pattern) was “only bands for cleavages at the 97 and 119 sites are intense enough to be significant”, the “activity of the compounds” value [1] was “++” and the GI50 [3] was 0.2 µM. It also gave a GI50 [4] of 0.1 µM, a GI50 [5] of 4.7 µM and a GI50 [6] of 4.16 µM. The GI50 [7] was 0.33 µM, the GI50 [8] was 12.3 µM and the GI50 [9] was 6.8 µM. For the same molecule, the GI50 [10] was 6.3 µM, the GI50 [11] was 0.03 µM and the GI50 [12] was 13.2 µM. The GI50 [13] was 0.02 µM, the GI50 [14] was 10.5 µM and the GI50 [15] was 0.4 µM. The MGM (mean GI50 across cell lines) [16] was 5.6 µM, the “solubilities in solvents like DMSO, methanol and chloroform” value [2] was “increased substantially” and the melting point was 185 to 190 °C (dec.).

With `COc1cc2c(Cl)nc3c4ccccc4nc(Cl)c3c2cc1OC` [Compound 33, 6,11-Dichloro-8,9-dimethoxydibenzo[c,h][1,6]naphthyridine] the “Top1 inhibitory activity” value [1] was “loss of activity” and the “activity of the compounds” value [1] was 0.

In the case of `COc1cc2c(OC)nc3c4ccccc4nc(OC)c3c2cc1OC` [Compound 34, 6,8,9,11-Tetramethoxydibenzo[c,h][1,6]naphthyridine], the “Top1 inhibitory activity” value [1] was “loss of activity” and the “activity of the compounds” value [1] was 0.
